These results are taken from PubChem BioAssay (NCI).

Among the test systems are CAKI-1 renal; EKVX NSCLC; HL-60(TB) leukemia; OVCAR-3 ovarian; RXF 393 renal; SK-MEL-28 melanoma; SW-620 colon; T-47D breast; U251 CNS; UACC-62 melanoma.
Common to all, as to test: DTP human tumour cell line panel, 48 h

SMILES strings stand for the structures.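 Protocol summary: plate cells (96-well), add compound at 5 concentrations, incubate 48 h, interpolate endpoints linearly. Definition used: TGI = concentration required for complete inhibition of growth.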

By TGI is commonly meant the concentration at which net growth stops. A lower TGI goes with greater sensitivity of the cells. Turning to `O=C1C=CC(=O)c2c1ccc1c3ccccc3n(CCCCCn3c4ccccc4c4ccc5c(c43)C(=O)C=CC5=O)c21`, the concentration for total growth inhibition (TGI) is 13.7 µM with CAKI-1 renal; more than 94.3 µM in the assay on EKVX NSCLC; 3.23 µM in the assay with HL-60(TB) leukemia; 34.4 µM in the assay on OVCAR-3 ovarian; 21.1 µM in the assay on RXF 393 renal; 31.5 µM in the assay with SK-MEL-28 melanoma. The TGI in the assay on SW-620 colon worked out at 26.8 µM; in the assay on T-47D breast, 24.5 µM; in the assay on U251 CNS it was 54 µM; in the assay on UACC-62 melanoma it was 71.8 µM.
For the molecule `CN1C(=O)c2ccccc2OC12C=Cc1c(ccc3ccccc13)O2` (stereo not given), the TGI is 33.3 µM with CAKI-1 renal; 10.7 µM in the assay with EKVX NSCLC; 17.6 µM in the assay with HL-60(TB) leukemia; 19.1 µM in the assay with OVCAR-3 ovarian; 31.1 µM with RXF 393 renal; more than 67.6 µM in the assay on SK-MEL-28 melanoma. The concentration for total growth inhibition (TGI) was more than 72.6 µM in the assay with SW-620 colon, more than 25.7 µM in the assay on T-47D breast, more than 34 µM with U251 CNS and more than 47.1 µM in the assay with UACC-62 melanoma.
Consider `O=C1Nc2cccc(Cl)c2/C1=C\c1c(Cl)nc2n1CCS2`, for which the TGI in the assay on CAKI-1 renal, with EKVX NSCLC, with HL-60(TB) leukemia, in the assay with OVCAR-3 ovarian, with RXF 393 renal and in the assay on SK-MEL-28 melanoma was more than 100 µM each time. Also, the TGI with SW-620 colon, in the assay with T-47D breast, in the assay on U251 CNS and in the assay with UACC-62 melanoma was more than 100 µM throughout.
For the molecule `CC(=O)Nc1sc(Br)cc1S(=O)(=O)c1ccc(Cl)cc1`, the concentration for total growth inhibition (TGI) with CAKI-1 renal was more than 100 µM; with EKVX NSCLC it was more than 100 µM; in the assay on HL-60(TB) leukemia, 63.4 µM; with OVCAR-3 ovarian, 47.2 µM; with RXF 393 renal, 48.4 µM; with SK-MEL-28 melanoma, more than 100 µM. Further, the total growth inhibition concentration (TGI) with SW-620 colon was more than 100 µM; with T-47D breast it was 68.5 µM; in the assay on U251 CNS, more than 100 µM; in the assay on UACC-62 melanoma, more than 100 µM.
For the molecule `CC(C)(C)OC(=O)NC1CCCCC1NC(=O)C(=O)NC1CCCCC1NC(=O)OC(C)(C)C` (stereo not given), the TGI in the assay with CAKI-1 renal is more than 100 µM; in the assay on EKVX NSCLC, more than 100 µM; with HL-60(TB) leukemia, more than 100 µM; in the assay on OVCAR-3 ovarian it was more than 100 µM; in the assay on RXF 393 renal, 38.8 µM; with SK-MEL-28 melanoma, more than 100 µM. Further, the TGI in the assay with SW-620 colon was more than 100 µM; with T-47D breast it was more than 100 µM; in the assay on U251 CNS, more than 100 µM; with UACC-62 melanoma, 92.9 µM.
As to `COC(=O)C1=C(C(=O)OC)N(c2ccc(OC)cc2[N+](=O)[O-])C(c2ccc(C)cc2)=CC1c1ccc(OC)cc1OC` (stereo not given), the TGI is more than 92.4 µM in the assay on CAKI-1 renal; more than 100 µM in the assay with EKVX NSCLC; more than 44.3 µM with HL-60(TB) leukemia; more than 95 µM with OVCAR-3 ovarian; 50 µM in the assay with RXF 393 renal; more than 100 µM in the assay with SK-MEL-28 melanoma. Besides, the TGI in the assay on SW-620 colon is 19.2 µM; in the assay on T-47D breast, more than 93.3 µM; in the assay with U251 CNS, 34.8 µM; in the assay on UACC-62 melanoma, more than 100 µM.
On to `C=CCc1cccc2cc(C(=O)NCc3ccccc3)c(=N)oc12`, for which the total growth inhibition concentration (TGI) is more than 100 µM in the assay with CAKI-1 renal; more than 100 µM in the assay on EKVX NSCLC; more than 100 µM in the assay on HL-60(TB) leukemia; 58.6 µM in the assay on OVCAR-3 ovarian; more than 100 µM in the assay on RXF 393 renal; more than 100 µM in the assay with SK-MEL-28 melanoma. Further, the TGI with SW-620 colon, in the assay on T-47D breast, in the assay on U251 CNS and in the assay with UACC-62 melanoma was more than 100 µM throughout.
As to `COC(=O)c1ccc(/C=C/c2cc(O)ccc2O)cc1`, the TGI in the assay on CAKI-1 renal was 7.5 µM; in the assay on EKVX NSCLC it was 9.66 µM; with HL-60(TB) leukemia it was 1.06 µM; in the assay with OVCAR-3 ovarian, 6.86 µM; with RXF 393 renal, 6.59 µM; with SK-MEL-28 melanoma, 43.4 µM. Moreover, the TGI came to 18.6 µM with SW-620 colon, 5.32 µM in the assay on T-47D breast, 8.44 µM in the assay with U251 CNS and 17.4 µM with UACC-62 melanoma.
For the molecule `O=[N+]([O-])C[C@@]12O[C@]3(O)C4C5CC(C6C5C3C61)C42` (stereo not given in full), the TGI in the assay on CAKI-1 renal, in the assay with EKVX NSCLC, with HL-60(TB) leukemia, in the assay with OVCAR-3 ovarian, with RXF 393 renal and in the assay with SK-MEL-28 melanoma was more than 100 µM throughout. Also, the total growth inhibition concentration (TGI) with SW-620 colon, with T-47D breast, in the assay on U251 CNS and in the assay with UACC-62 melanoma was more than 100 µM throughout.
Turning to `O=c1oc2ccc3ccccc3c2cc1-c1nc2ccccc2s1`, the TGI in the assay on CAKI-1 renal, in the assay with EKVX NSCLC, with HL-60(TB) leukemia, with OVCAR-3 ovarian, in the assay with RXF 393 renal and in the assay on SK-MEL-28 melanoma was more than 100 µM throughout. In addition, the TGI in the assay with SW-620 colon, with T-47D breast, in the assay on U251 CNS and with UACC-62 melanoma was more than 100 µM in each case.
As to `CC(=O)N=C1N(/C=C2\C(=O)Oc3ccccc3C2=O)C(=O)/C(=C/c2cccc(Cl)c2Cl)N1C`, the TGI was 65.8 µM in the assay with CAKI-1 renal; more than 100 µM with EKVX NSCLC; more than 100 µM in the assay on HL-60(TB) leukemia; 20 µM with OVCAR-3 ovarian; 84.6 µM in the assay with RXF 393 renal; more than 100 µM in the assay on SK-MEL-28 melanoma. For the same molecule, the concentration for total growth inhibition (TGI) in the assay on SW-620 colon, in the assay with T-47D breast, with U251 CNS and in the assay on UACC-62 melanoma was more than 100 µM throughout.
Regarding `NC(N)=NS(=O)(=O)c1ccc(NNc2c3ccccc3nc3c(C(=O)Nc4ccc(S(=O)(=O)Nc5ncccn5)cc4)cccc23)cc1`, the TGI in the assay with CAKI-1 renal is more than 100 µM; in the assay with EKVX NSCLC, 96.2 µM; in the assay with HL-60(TB) leukemia, more than 100 µM; with OVCAR-3 ovarian it was more than 100 µM; with RXF 393 renal, more than 100 µM; with SK-MEL-28 melanoma it was more than 100 µM. For the same molecule, the TGI in the assay on SW-620 colon is more than 100 µM; with T-47D breast it was more than 100 µM; in the assay on U251 CNS, more than 100 µM; in the assay on UACC-62 melanoma, 48.2 µM.
On to `O=C1C2SC34c5c2c2ccccc2n5CCC3CCCN14` (stereo not given), for which the concentration for total growth inhibition (TGI) with CAKI-1 renal, in the assay on EKVX NSCLC, in the assay on HL-60(TB) leukemia, in the assay on OVCAR-3 ovarian, in the assay on RXF 393 renal and in the assay with SK-MEL-28 melanoma was more than 100 µM in each case. In addition, the TGI in the assay on SW-620 colon, with T-47D breast, in the assay on U251 CNS and with UACC-62 melanoma was more than 100 µM throughout.
